Results: article PMC11212260, “Next-generation neuropeptide Y receptor small-molecule agonists inhibit mosquito-biting behavior” (Parasites & Vectors, 2024)
Where “and” joins values, the source holds several entries; their conditions need not be identical. Equal entries are not always repeated. Where two headings read alike, the source gives them in different places.

Experiments:
[1] = molecular target: Ae. aegypti NPYLR7 (Aedes aegypti, UniProt U5N1H5); experiment: In vitro calcium (GCaMP6s) FLIPR assay in HEK293T cells transfected with NPYLR7; format: cell-based; details: for activation at 100 µM: single replicate of the dose-response curve
Outline: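 HEK293T cells transiently co-transfected with GCaMP6s, mouse Gqα15 and NPYLR7; FLIPR imaging every second for 5 min, compound (0–100 μM) added after 30 s baseline in HBSS + 20 mM HEPES. Response normalized to buffer (0%) and 10 μM FMRFa3 (100%); relative EC50 by four-parameter fit, replicates averaged.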

[2] = tested on: Aedes aegypti (Orlando strain) females; experiment: Glytube feeding: females feeding to repletion and weight per female (meal palatability); format: in vivo; details: Supplemental Figure 1 Panel A; compounds of Fig 3; individual replicate values
Method: Groups of 60–150 females were placed in bucket cages with a diameter of 21.6 cm and height of 16.5 cm (VWR) and fasted with access to water for 24 h prior to feeding. Meals were delivered to females via Glytube membrane feeders as described previously. Meals consisted of 1.5 ml sheep blood (HemoStat Laboratories), saline (400 mM NaHCO3 + dih2O), or saline and test compound. Lyophilized compounds were stored at room temperature until use. High-concentration stocks (30 mM in 100% dimethyl sulfoxide [DMSO]) (Sigma-Aldrich) were stored at −20 °C and diluted in saline immediately prior to feeding. Once prepared, meals and glycerol heating elements were warmed in a 42 °C water bath for 15 min to provide warmth to attract mosquitos to feed. ATP (1 mM final concentration) and test compounds (1 μM final concentration) were added prior to placing the meal on top of the mesh on the cage containing female mosquitos. Females were allowed 15–20 min to feed to repletion. Abdominal engorgement was scored by eye and confirmed by weighing females to ensure full feeding (Data S1). […] Females were returned to their original cage with a diH2O wick for 48 h prior to behavioral testing. The lethality of each compound was measured by counting the number of dead females in each cage 24 h post-meal.
Supplementary file 13071_2024_6347_MOESM1_ESM.png: Supplementary Material 1: Figure 1. […] (A) Percent of females feeding to repletion and (B) weight per female after feeding on the indicated meal used for testing in Miniport olfactometer experiments in Figure 3B. (C) Percent of females feeding to repletion and (D) weight per female after feeding on the indicated meal used for testing in live host assays in Figure 4. Data are shown as mean with standard deviation. n = 2–22 replicate cages, 60–150 females/cage. Females were weighed in groups of five to ensure reliable readings. Kruskal–Wallis with Dunn’s multiple comparisons to saline-fed group, ns P > 0.01, * P < 0.01, *** P < 0.0001. (PNG 321 KB)

[3] = tested on: Aedes aegypti (Orlando strain) females; experiment: Host-seeking screening assay (miniport olfactometer); format: in vivo; details: fed 1 μM in saline, tested 48 h post-meal; for Attraction (relative to saline): per-compound value of Fig. 3C
Outline: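 Fasted Orlando-strain females fed saline meals (400 mM NaHCO3) with 1 mM ATP and test compound at 1 μM final via warmed membrane feeders; lethality counted 24 h post-meal. At 48 h, attraction to human-scented stocking plus 5% CO2 scored over 5 min, normalized to matched saline-fed controls.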

[4] = EC50 of the individual assay date/plate (assay date), read-out: EC50
[5] = HEK-293T, 11.1111 uM, single replicate, normalised response
[6] = HEK-293T, 33.3333 uM, single replicate, normalised response
[7] = relative EC50, percent effect relative to 10 μM FMRFa3, read-out: EC50
[8] = sheet Figure 3C, unit inferred, read-out: EC50
[9] = summary EC50 per compound (mean over assay dates), the unit is taken from the neighbouring EC50 (uM) column, read-out: Reported Metric

Chain of Ae. aegypti NPYLR7 (U5N1H5 entry or part of it): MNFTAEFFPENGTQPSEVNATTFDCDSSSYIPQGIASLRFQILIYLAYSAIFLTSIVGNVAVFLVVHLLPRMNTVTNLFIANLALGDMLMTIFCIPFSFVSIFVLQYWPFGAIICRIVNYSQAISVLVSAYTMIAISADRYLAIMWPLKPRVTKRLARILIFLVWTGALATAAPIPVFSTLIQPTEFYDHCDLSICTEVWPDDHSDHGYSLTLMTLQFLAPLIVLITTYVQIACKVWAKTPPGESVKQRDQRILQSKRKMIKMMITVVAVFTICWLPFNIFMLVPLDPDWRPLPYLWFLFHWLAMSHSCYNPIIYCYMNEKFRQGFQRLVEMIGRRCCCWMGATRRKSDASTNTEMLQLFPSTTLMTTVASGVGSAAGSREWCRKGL

| SMILES | EC50 [1, 4] [µM] | activation at 11.1111 µM [1, 5] [%] | activation at 33.3333 µM [1, 6] [%] | activation at 100 µM ([1]; HEK-293T, normalised response) [%] | EC50 [1, 7] [µM] | EC50 [1, 8] [µM] | EC50 [1, 9] [µM] | % feeding (females feeding to repletion) [2] [%] | Attraction (relative to saline) [3] | further results |
| --- | --- | --- | --- | --- | --- | --- | --- | --- | --- | --- |
| CCOc1ccc(COc2ccc3c(C)nc(NC(=N)N)nc3c2)cc1 [TDI-014176] | 6.35 | 88 | 131 | 133 | 6.35 | 6.35 | 6.35 | 58.02 | 0.74 | EC50 ([1]; Figure 1E Summary, second list (n = 48), read-out: Reported Metric (Summary list)): 6.35 µM; activation at 0.0017 µM ([1]; HEK-293T, 0.0017 uM, single replicate, normalised response): 4.15%; activation at 0.0051 µM ([1]; HEK-293T, 0.0051 uM, single replicate, normalised response): 3.37% |
| COc1ccc2nc(N)nc(C)c2c1 [TDI-012610] | – | – | – | – | > 100 | – | – | 89.86 | 0.99 | Reported Metric (Summary list) ([1]; Figure 1E Summary, first list: low sensitivity or >100 (n = 41)): low sensitivity; EC50 (uM) ([1]; Figure 1E, EC50 of the single assay date/plate): low sensitivity; Reported Metric (EC50) ([1]; Figure 1E, metric reported per compound, repeated on every replicate line): low sensitivity; activation at 3.7037 µM ([1]; HEK-293T, compound 3.7037 uM, single replicate well, read-out: response at 3.7037): 9.1%; activation at 11.1111 µM ([1]; HEK-293T, compound 11.1111 uM, single replicate well, read-out: response at 11.1111): 4.96%; activation at 33.3333 µM ([1]; HEK-293T, compound 33.3333 uM, single replicate well, read-out: response at 33.3333): 1.85%; in vitro potency (in words) ([1]; relative to reference compound TDI-012631): loss of potency |
| CCCOc1ccc2c(C)nc(NC(=N)N)nc2c1 [TDI-014178] | 2.25 | 86.6 | 96.4 | 100 | 2.25 | 2.25 | 2.25 | 49.19 | 0.93 | EC50 ([1]; Figure 1E Summary, third list (n = 39), read-out: Reported Metric (Summary list)): 2.25 µM; activation at 1.2346 µM ([1]; HEK-293T, 1.2346 uM, single replicate, normalised response): 42.7%; activation at 3.7037 µM ([1]; HEK-293T, 3.7037 uM, single replicate, normalised response): 66.7%; Host-seeking relative to saline (test compound % host-seeking/average matched saline % host-seeking) ([3]; individual replicates, listed as TDI-04178): 0.93 and 1 |
